Source: PMC3204421 (Frontiers in Pharmacology, 2011)

Columns and labels:
[1] = target: T1, GIRK1/GIRK2 channels (AtT20 cells) (Mus musculus, UniProt P48542+P63250); assay: GIRK channel fluorescent plate reader assay; format: cell-based
T1 sequence (P63250 1-501): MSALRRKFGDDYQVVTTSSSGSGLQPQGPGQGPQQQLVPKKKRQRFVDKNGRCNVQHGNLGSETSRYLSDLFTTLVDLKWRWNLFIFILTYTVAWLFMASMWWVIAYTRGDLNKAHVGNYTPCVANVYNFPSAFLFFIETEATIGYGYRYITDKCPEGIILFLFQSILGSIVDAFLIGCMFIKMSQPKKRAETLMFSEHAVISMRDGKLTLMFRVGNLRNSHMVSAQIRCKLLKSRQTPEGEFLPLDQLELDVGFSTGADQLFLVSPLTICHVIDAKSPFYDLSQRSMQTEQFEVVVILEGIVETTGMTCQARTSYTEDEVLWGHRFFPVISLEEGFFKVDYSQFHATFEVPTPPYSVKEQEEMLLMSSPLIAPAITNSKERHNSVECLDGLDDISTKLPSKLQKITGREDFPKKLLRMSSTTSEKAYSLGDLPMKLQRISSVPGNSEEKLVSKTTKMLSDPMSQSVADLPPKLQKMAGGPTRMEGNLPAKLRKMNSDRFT
T1 sequence (P48542 1-425): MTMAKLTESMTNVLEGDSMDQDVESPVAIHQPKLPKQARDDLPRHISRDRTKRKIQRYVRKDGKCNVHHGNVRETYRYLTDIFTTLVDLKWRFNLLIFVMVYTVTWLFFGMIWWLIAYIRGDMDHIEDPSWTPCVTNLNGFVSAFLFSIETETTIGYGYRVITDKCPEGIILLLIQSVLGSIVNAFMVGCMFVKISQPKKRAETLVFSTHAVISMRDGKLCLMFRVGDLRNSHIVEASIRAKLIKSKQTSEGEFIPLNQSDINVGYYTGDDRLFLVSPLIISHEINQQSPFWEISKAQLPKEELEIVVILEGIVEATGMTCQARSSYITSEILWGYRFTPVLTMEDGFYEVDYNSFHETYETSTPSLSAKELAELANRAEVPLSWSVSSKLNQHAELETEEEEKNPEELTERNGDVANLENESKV

[2] = test system: GIRK1/GIRK4 channels; settings: ref Hashimoto et al., [2008]; Machida et al., [2011]; cited from earlier work
[3] = test system: atrial fibrillation; settings: ref Hashimoto et al., [2008]; Machida et al., [2011]; cited from earlier work
[4] = target: T2, GIRK1/GIRK4 channel (cardiac HL-1 cells) (Mus musculus, UniProt P48545+P63250); assay: GIRK channel fluorescent plate reader assay; format: cell-based
T2 sequence (P63250 1-501): T1 sequence (P63250 1-501)
T2 sequence (P48545 1-419): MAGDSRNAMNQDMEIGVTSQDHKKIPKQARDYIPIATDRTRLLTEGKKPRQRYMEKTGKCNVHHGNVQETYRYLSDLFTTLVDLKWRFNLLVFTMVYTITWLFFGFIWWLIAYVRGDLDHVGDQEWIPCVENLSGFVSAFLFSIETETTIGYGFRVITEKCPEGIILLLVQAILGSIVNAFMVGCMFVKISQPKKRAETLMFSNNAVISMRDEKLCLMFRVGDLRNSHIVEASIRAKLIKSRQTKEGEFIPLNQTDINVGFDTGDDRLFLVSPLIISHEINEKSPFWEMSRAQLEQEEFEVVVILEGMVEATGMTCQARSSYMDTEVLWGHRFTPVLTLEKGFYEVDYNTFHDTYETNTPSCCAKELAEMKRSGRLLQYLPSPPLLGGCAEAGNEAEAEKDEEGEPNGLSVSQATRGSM

## [Ba+2].[Cl-].[Cl-] [BaCl2]
[1]; 0.5 mM, AtT20 cells, n = 6 wells
  reduction of the somatostatin-mediated fluorescent change: 67 ± 4%
[1]; 1 mM, AtT20 cells, n = 6 wells
  reduction of the somatostatin-mediated fluorescent change: 92 ± 2%
[1]; 2 mM, 5 min pretreatment, AtT20 cells
  inhibition of the somatostatin-mediated fluorescent change: complete inhibition

## [Cl-].[K+] [KCl]
[1]; 10 mM KCl, depolarization, AtT20 cells
  fluorescent change (F/FO): 0.058
[1]; 20 mM KCl, depolarization, AtT20 cells
  fluorescent change (F/FO): 0.13
[1]; 30 mM KCl, depolarization, AtT20 cells
  fluorescent change (F/FO): 0.15

## Cc1cc(CO)nc2cc3c(cc12)OC(C)(C)[C@H](O)[C@H]3NCCc1ccccc1 [NTC-801]
[2]
  concentration range of GIRK1/GIRK4 channel block: nanomolar concentrations
[3]
  effect in canine model of atrial fibrillation: converted AF to sinus rhythm

## Cc1nc2c(OCc3ccccc3)cccn2c1CC#N [SCH-28080, 2-methyl-8-(phenylmethoxy)imidazo[1,2-A]pyridine-3-acetonitrile]
[1]
  IC50: 0.2 µM
[4]
  IC50: 0.3 µM

## Nc1ncnc2c1ncn2[C@@H]1O[C@H](CO)[C@@H](O)[C@H]1O [adenosine]
[1]; 10 μM, AtT20 cells
  change in the fluorescent signal: no change

## N=C(N)NC(=O)c1nc(Cl)c(N)nc1N [amiloride]
[1]; tested up to 10 μM, AtT20 and HL-1 cells screened, cell line not specified
  GIRK channel blocking effect: no blocking effect

## C[N+](C)(C)CCOC(N)=O [carbachol]
[1]
  EC50: 1 µM
[1]; AtT20 cells, n = 6 wells
  peak fluorescent change: −0.037

## COc1ccc2[nH]c([S+]([O-])Cc3ncc(C)c(OC)c3C)nc2c1 (stereo not shown) [omeprazole]
[1]; cell line not specified (AtT20 / HL-1), Figure 5
  change in GPCR-sensitive fluorescence during treatment: no change in fluorescence

## C[C@H](N)C(=O)NCC(=O)N[C@H]1CSSC[C@@H](C(=O)O)NC(=O)[C@H](CO)NC(=O)[C@H]([C@@H](C)O)NC(=O)[C@H](Cc2ccccc2)NC(=O)[C@H]([C@@H](C)O)NC(=O)[C@H](CCCCN)NC(=O)[C@H](Cc2c[nH]c3ccccc23)NC(=O)[C@H](Cc2ccccc2)NC(=O)[C@H](Cc2ccccc2)NC(=O)[C@H](CC(N)=O)NC(=O)[C@H](CCCCN)NC1=O [somatostatin]
[1]; 200 nM, AtT20 cells, n = 6 wells
  fluorescent change (F/FO): −0.088
